A short description of this series: Clearance of PBD drug-linker from conjugation reaction mixture by tangential flow filtration (constant volume diafiltration). As to conditions: Example 8; without cyclodextrin; Tris, NaCl and 50% propylene glycol; clearance stalling after four diavolumes. The method, then:
The diafiltration (DF) process used an 88 cm^2 Ultracel Pellicon 3 cassette from Millipore with a 30 kD molecular weight pore size. The batch volume for the DF was 250 mL, the feed flow rate was 40 ml/min throughout the process, and the retentate valve was adjusted to maintain a trans-membrane pressure of ˜20 psi. The diafiltration buffer addition rate to maintain constant batch volume started at 9 mL/min, but was maintained at 13-14 ml/min through most of the process. Samples were removed after the completion of each diavolume. The concentration of hpb-CD was measured in each sample using an RP HPLC assay with evaporative light scattering detection.
This mixture was brought to 10 w/v % hpb-CD by addition of 25% volume of a 50 w/v % solution of hpb-CD in 50 mM Tris/5 mM EDTA, pH 8.0. […] The concentration of quenched drug-linker was determined in each sample. […] C and C0 are concentrations of the analyte measured, N is the number of diavolumes, and S is the sieving factor, defined as the analyte concentration on the permeate side of the membrane divided by the analyte concentration on the retentate side of the membrane. […]
The TFF process was performed on quenched conjugation reaction mixture using a 30 kD MW cutoff 0.1 m^2 Ultracel Pellicon 3 membrane (Millipore). […] The concentration of quenched PBD drug-linker was determined in each sample. […]

Structures are written as SMILES.

Turning to `COc1ccc(C2=CN3C(=O)c4cc(OC)c(OCCCOc5cc6c(cc5OC)C(=O)N5C=C(c7ccc(NC(=O)[C@H](C)NC(=O)[C@@H](NC(=O)CCCCCN8C(=O)CC(SCC(NC(C)=O)C(=O)O)C8=O)C(C)C)cc7)C[C@H]5C=N6)cc4N=C[C@@H]3C2)cc1` (stereo partly shown) [compound 4], the “benzodiazepine drug-related impurity remaining in the mixture” value is 1.1 µM.

Source of the values: patent US10391181B2, “Cyclodextrin and antibody-drug conjugate formulations” (priority 2013, dated 2019).
